Here are results for one substance from patent EP0293130A2, “Dimers of parathyroid hormone antagonists” (Merck & Co., Inc., priority 1987, dated 1988).

This assay has as its system adenylate cyclase. As to conditions: adenylate cyclase assay. From the text: In the adenylate cyclase assay of Caporale, L. et al, Peptides: Structure and Function, Proc. 9th Am. Pept. Symp. p.

For the substance ([Tyr³⁴,Cys³⁹]PTH(21-39)NH₂)₂, the “increase in antagonist potency over its monomeric derivative” value (dimer versus its monomeric derivative) is 25 fold. The IC50 (read-out: IC₅₀ (antagonist potency), antagonism of PTH) was found to be 20 µM.
